The results in this text go back to patent US20210284618A1, “FURANOCHALCONES AS INHIBITORS OF CYP1A1, CYP1A2 AND CYP1B1 FOR CANCER CHEMOPREVENTION” (Council of Scientific & Industrial Research, priority 2016, published 2021).

Broadly, the inhibition is the percentage by which the read-out fell short of the control. Usually melting point stands for the temperature, or range, at which the solid turns liquid. For orientation: IC50 means the concentration that gives 50% inhibition.

For data set [1], the target named is T1, CYP1A1 (Homo sapiens, UniProt P04798).
T1 construct: host or cells: yeast microsomes (Saccharosomes)
T1 sequence (P04798 1-512): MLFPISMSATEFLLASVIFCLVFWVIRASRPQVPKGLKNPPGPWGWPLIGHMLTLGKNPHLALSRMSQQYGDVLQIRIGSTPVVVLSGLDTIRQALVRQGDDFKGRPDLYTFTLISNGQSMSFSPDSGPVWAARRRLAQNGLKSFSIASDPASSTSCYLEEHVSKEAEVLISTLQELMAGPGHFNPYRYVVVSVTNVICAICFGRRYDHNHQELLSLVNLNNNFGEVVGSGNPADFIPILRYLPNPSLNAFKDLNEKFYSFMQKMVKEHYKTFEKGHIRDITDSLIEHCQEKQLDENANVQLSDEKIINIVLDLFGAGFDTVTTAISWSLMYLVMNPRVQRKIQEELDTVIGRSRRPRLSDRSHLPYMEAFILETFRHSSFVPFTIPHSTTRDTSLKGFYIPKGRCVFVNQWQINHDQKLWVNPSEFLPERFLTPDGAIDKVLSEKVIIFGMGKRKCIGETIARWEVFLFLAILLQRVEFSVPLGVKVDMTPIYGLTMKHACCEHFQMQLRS
Nature of the data set: CYP1A1 inhibition in HEK293 cells transfected with pcDNA3.1/CYP1A1 (live cells). Format: cell-based. The conditions noted are these: for inhibition at 10 μM: human, HEK293 cells transfected with pcDNA3.1/CYP1A1 (live cells), probe EROD (5 μM), % inhibition of CYP1A1 in HEK293 cells at 10 μM. Here is the method:
Example 26. In-vitro CYP450 inhibition in HEK293 cells transfected with pcDNA3.1/CYP1A1 against 5 μM EROD. […] The HEK293 cells used here was procured from ‘European Collection of Authenticated Cell Cultures’ (catalog number. ECACC 85120602).

For data set [2], the target named is T1, CYP1A1. Nature of the data set: In-vitro CYP450 1A1 enzyme inhibition in Saccharosomes. The class given is biochemical. The conditions noted are these: for inhibition at 20 min, 10 μM: human, Saccharosomes containing CYP1A1, pH 7.4, probe ethoxyresorufin (5 μM), % inhibition of CYP1A1 in Saccharosomes at 10 μM; for inhibition at 20 min, 10 μM / % inhibition of CYP1A1 in Saccharosomes at 10 μM: 10 μM test compound, 5 μM ethoxyresorufin. Here is the method:
Example 23. In-vitro CYP450 1A1 enzyme inhibition in Saccharosomes™: The screening method utilizes 384-well microplates to rapidly ascertain relative percentage inhibition of CYP1A1 by a library of compounds. Each reaction was performed in black, clear-bottomed 384-well microplates. A reaction volume of 50 μl comprised of 0.5 pmol of the cytochrome P450 CYP1A1 (Saccharosomes), 5 μM of ethoxyresorufin substrate (which contributes 0.05% DMSO to the well), 10 μM of potential inhibitor test article (which contributes 0.5% DMSO to the well), A P450 reductase NADPH regenerating system (1.3 mM NADP+, 3.3 mM glucose-6-0.02 units phosphate and glucose-6-Phosphate dehydrogenase), potassium phosphate buffer (final well concentration 100 mM, pH 7.4) and water. Very small quantities of magnesium chloride and sodium citrate are added to the NADPH regenerating system, in line with standard published protocols. The potential inhibitor (test article) was pre-incubated with CYP1A1 of at least 20 minutes at 30° C. After this period, the remainder of the reagents required in the assay was added to initiate the process. The reaction mixture was incubated for another 20 minutes at 30° C. The reaction was stopped by adding an 80% acetonitrile, 20% 0.5 M Tris solution. The reactions were monitored using the Biotek Synergy HT plate reader by measuring the endpoint reaction at Excitation 530/(25 bandwidth) & Emission 590/(20 bandwidth) using a gain/sensitivity setting of 60. The mean of the quadruplicates of the negative control (solvent inactivated CYP1A1) was deducted from the mean of potential inhibitor (test article) samples. The percentage was then derived relative to the mean of the wells without inhibitor.
(§1) Example 25. IC50 determination for best compound against CYP1A1, CYP1B1 and other CYPs in Saccharosomes. Compounds were serially diluted to six different concentrations with 10% DMSO in a Sero-Well white microplate. The experiment was performed in a similar way as described above in examples 23 and 24.

In another data set the target is T2, CYP1B1 (Homo sapiens, UniProt Q16678).
T2 sequence (Q16678 1-543): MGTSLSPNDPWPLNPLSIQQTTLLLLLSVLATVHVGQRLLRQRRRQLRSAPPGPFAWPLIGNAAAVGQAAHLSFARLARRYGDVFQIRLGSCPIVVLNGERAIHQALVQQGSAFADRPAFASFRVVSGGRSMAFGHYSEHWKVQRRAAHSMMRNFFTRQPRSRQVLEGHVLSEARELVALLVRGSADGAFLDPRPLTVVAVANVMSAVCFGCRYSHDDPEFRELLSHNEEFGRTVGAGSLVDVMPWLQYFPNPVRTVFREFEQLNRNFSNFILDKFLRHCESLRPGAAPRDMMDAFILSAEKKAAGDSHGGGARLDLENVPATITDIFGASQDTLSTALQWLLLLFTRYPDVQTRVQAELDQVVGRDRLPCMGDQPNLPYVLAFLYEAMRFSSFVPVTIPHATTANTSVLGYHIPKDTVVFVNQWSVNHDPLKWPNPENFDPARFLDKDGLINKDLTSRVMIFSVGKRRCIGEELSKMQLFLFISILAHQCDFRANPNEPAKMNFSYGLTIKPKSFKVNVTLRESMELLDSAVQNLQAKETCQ
Nature of the data set: In-vitro CYP450 1B1 enzyme inhibition in Saccharosomes. Set-up: purchased CYP Design Ltd; host or cells: yeast microsomes (Saccharosomes). The settings on record: 10 μM test compound, 7-ethoxyresorufin; for inhibition at 10 μM: human, Saccharosomes (yeast-derived) with recombinant CYP1B1, probe 7-ethoxyresorufin (5 μl of 0.1 mM), % inhibition of CYP1B1 in Saccharosomes at 10 μM. Format: biochemical. Here is the method:
Example 24. In-vitro CYP450 1B1 enzyme inhibition in Saccharosomes™: Regenerating system consists of: 5 μl Solution A (183 mg of NADP++183 mg of glucose-6-phosphate+654 μl of 1.0 M magnesium chloride solution+9.15 ml of sterile ultra-pure water)+1 μl Solution B (250 Units of glucose-6-phosphate dehydrogenase+6.25 ml of 5 mM sodium citrate; mixed in a tube and made up to 10 ml with sterile ultra-pure water)+39 μl 0.2 M Kpi (0.6 ml of 1.0M K2HPO4+9.4 ml of 1.0 M KH2PO4 were mixed and made up to 50 ml with sterile ultra-pure water)+5 μl potential inhibitory compound.
as §1

With `COc1c(C(=O)/C=C/c2ccccc2Cl)c(O)c(OC)c2occc12` [Compound 12, 3-(4,7-dimethoxy-6-hydroxybenzofuran-5-yl)-1-(2-chlorophenyl)-3-oxopropene], the melting point fell in the range of 160 to 161 °C. The inhibition at 10 μM at CYP1A1 [1] (10 μM, 5 μM EROD) turned out to be 19.5%. On CYP1A1 [2], the inhibition at 20 min, 10 μM is 23.6%.
Turning to `O=c1cc(-c2ccccc2)oc2c1ccc1ccccc12` [Alpha-naphthoflavone, reference compound], on CYP1A1 [1], the IC50 was > 10000 nM. In addition, on CYP1A1 [1] (10 μM, 5 μM EROD), the inhibition at 10 μM turned out to be 30%. Moreover, on CYP1B1, the “% inhibition of CYP1B1 in Saccharosomes at 10 μM” value was found to be 98%. At CYP1A1 [2], the IC50 is 90 nM and the inhibition at 20 min, 10 μM came to 97%.
As to `COc1c(C(=O)/C=C/c2ccccc2)c(O)c(OC)c2occc12` [Compound 16, 3-(4,7-dimethoxy-6-hydroxybenzofuran-5-yl)-1-(phenyl)-3-oxopropene], the inhibition at 10 μM on CYP1A1 [1] (10 μM, 5 μM EROD) was > 80%. Besides, the inhibition at 20 min, 10 μM on CYP1A1 [2] was > 80%.
In the case of `COc1c2occc2c(OC)c2c(=O)cc(C)oc12` [Compound 1, Khellin, reference compound], on CYP1A1 [2], the “% inhibition of CYP1A1 in Saccharosomes at 10 μM” value is 88.3% and the inhibition at 20 min, 10 μM came to 88%.
As to `COc1c(C(=O)/C=C/c2c(Cl)cccc2Cl)c(O)c(OC)c2occc12` [Compound 10, 3-(4,7-dimethoxy-6-hydroxybenzofuran-5-yl)-1-(2,6-dichlorophenyl)-3-oxopropene], the melting point was 298 to 299 °C. Besides, the inhibition at 10 μM against CYP1A1 [1] (10 μM, 5 μM EROD) was found to be 58.8%. Also, the inhibition at 20 min, 10 μM at CYP1A1 [2] came out at 19.6%.
`COc1ccc(/C=C/C(=O)c2c(O)c(OC)c3occc3c2OC)cc1` [Compound 9, 3-(4,7-dimethoxy-6-hydroxybenzofuran-5-yl)-1-(4-methoxyphenyl)-3-oxopropene] came in with a melting point of 198 to 199 °C. The inhibition at 10 μM against CYP1A1 [1] (10 μM, 5 μM EROD) turned out to be 55.7%. Besides, the inhibition at 20 min, 10 μM on CYP1A1 [2] came out at 28.9%.
Consider `COc1c(C(=O)/C=C/c2ccc(Cl)cc2Cl)c(O)c(OC)c2occc12` [Compound 21, 3-(2,4-dichlorophenyl)-1-(6-hydroxy-4,7-dimethoxybenzofuran-5-yl)prop-2-en-1-one], for which the inhibition at 10 μM at CYP1A1 [1] (10 μM, 5 μM EROD) worked out at 71.4%. Moreover, the inhibition at 10 μM at CYP1B1 turned out to be 51.4%. In addition, on CYP1A1 [2], the “% inhibition of CYP1A1 in Saccharosomes at 10 μM” value was found to be 80.2% and the inhibition at 20 min, 10 μM was > 80%.
As for `COc1ccc(/C=C/C(=O)c2c(O)c(OC)c3occc3c2OC)cc1Br` [Compound 17, 3-(4,7-dimethoxy-6-hydroxybenzofuran-5-yl)-1-(3-bromo-4-methoxyphenyl)-3-oxopropene], the inhibition at 10 μM against CYP1A1 [1] (10 μM, 5 μM EROD) stood at 74%. In addition, the inhibition at 20 min, 10 μM at CYP1A1 [2] worked out at 37%.
Consider `COc1c(C(C)=O)c(O)c(OC)c2occc12` [Compound 2, 1-(6-hydroxy-4,7-dimethoxybenzofuran-5-yl)ethanone], for which the inhibition at 10 μM against CYP1A1 [1] (10 μM, 5 μM EROD) was > 80%.
Regarding `COc1c(C(=O)/C=C/c2ccccc2F)c(O)c(OC)c2occc12` [Compound 23, 3-(2-fluorophenyl)-1-(6-hydroxy-4,7-dimethoxybenzofuran-5-yl)prop-2-en-1-one], the inhibition at 10 μM at CYP1B1 amounted to 34.2%. Also, the inhibition at 20 min, 10 μM at CYP1A1 [2] worked out at 41.1%.
Consider `COc1cccc(/C=C/C(=O)c2c(O)c(OC)c3occc3c2OC)c1OC` [Compound 13, 3-(4,7-dimethoxy-6-hydroxybenzofuran-5-yl)-1-(2,3 dimethoxyphenyl)-3-oxopropene], for which the melting point was in the range of 260 to 262 °C.
Regarding `COc1c(C(=O)/C=C/c2ccc3c(c2)OCO3)c(O)c(OC)c2occc12` [Compound 19, 3-(benzo[d][1,3]dioxol-5-yl)-1-(6-hydroxy-4,7-dimethoxybenzofuran-5-yl)prop-2-en-1-one], the inhibition at 10 μM at CYP1B1 worked out at 41.6%. For the same molecule, the inhibition at 20 min, 10 μM at CYP1A1 [2] amounted to 48.4%.
As for `COc1c(C(=O)/C=C/c2ccsc2)c(O)c(OC)c2occc12` [Compound 20, 1-(6-hydroxy-4,7-dimethoxybenzofuran-5-yl)-3-(thiophen-3-yl)prop-2-en-1-one], the inhibition at 10 μM against CYP1A1 [1] (10 μM, 5 μM EROD) was 79.4%. Besides, the “% inhibition of CYP1B1 in Saccharosomes at 10 μM” value on CYP1B1 (10 µM) turned out to be 84.0%. Further, on CYP1B1, the inhibition at 10 μM was > 80%. For the same molecule, on CYP1A1 [2], the “% inhibition of CYP1A1 in Saccharosomes at 10 μM” value stood at 95.1% and the inhibition at 20 min, 10 μM is > 80%.
Consider `COc1c(C(=O)/C=C/c2ccc(Br)cc2)c(O)c(OC)c2occc12` [Compound 3, 3-(4,7-dimethoxy-6-hydroxybenzofuran-5-yl)-1-(4-bromophenyl)-3-oxopropene], for which the melting point was in the range of 135 to 137 °C.
For `COc1c(C(=O)/C=C/c2ccc3cc4ccccc4cc3c2)c(O)c(OC)c2occc12` [Compound 24, 3-(anthracen-2-yl)-1-(6-hydroxy-4,7-dimethoxybenzofuran-5-yl)prop-2-en-1-one], the inhibition at 10 μM at CYP1B1 amounted to 19.2%. Also, the inhibition at 20 min, 10 μM on CYP1A1 [2] is 43.4%.
The matching figures for `COc1c(C(=O)/C=C/c2ccc3ccccc3c2)c(O)c(OC)c2occc12` [Compound 22, 1-(6-hydroxy-4,7-dimethoxybenzofuran-5-yl)-3-(naphthalen-2-yl)prop-2-en-1-one]: 25.8% and 49.7%.
For `COc1cc(OC)c(OC)cc1/C=C/C(=O)c1c(O)c(OC)c2occc2c1OC` [Compound 18, 3-(4,7-dimethoxy-6-hydroxybenzofuran-5-yl)-1-(2,4,5-trimethoxyphenyl)-3-oxopropene], at CYP1A1 [1] (10 μM, 5 μM EROD), the “% inhibition of CYP1A1 in HEK293 cells at 10 μM” value came out at 96.8% and the inhibition at 10 μM was > 80%. In addition, on CYP1A1 [2], the “% inhibition of CYP1A1 in Saccharosomes at 10 μM” value is on record as 92.2% and the inhibition at 20 min, 10 μM was > 80%.
On to `COc1c(C(=O)/C=C/c2ccc(F)cc2F)c(O)c(OC)c2occc12` [Compound 7, 3-(4,7-dimethoxy-6-hydroxybenzofuran-5-yl)-1-(2,4-difluorophenyl)-3-oxopropene], for which the melting point is 154 to 156 °C. Besides, the inhibition at 10 μM against CYP1A1 [1] (10 μM, 5 μM EROD) is > 80%.
